Source: patent US9150575B2, “Piperidinylpyrazolopyridine derivative” (Daiichi Sankyo Company, Limited, priority 2012, dated 2015)

Biological target: T1, LCAT (Homo sapiens, UniProt P04180)
T1 construct: The obtained fraction was dialyzed against phosphate-buffered saline (pH 7.4) and used as an enzyme source and an acceptor for LCAT; from tissue; host or cells: HDL3 fraction (1.125<specific gravity<1.210 g/mL) of plasma from a healthy person
T1 sequence (P04180 25-440): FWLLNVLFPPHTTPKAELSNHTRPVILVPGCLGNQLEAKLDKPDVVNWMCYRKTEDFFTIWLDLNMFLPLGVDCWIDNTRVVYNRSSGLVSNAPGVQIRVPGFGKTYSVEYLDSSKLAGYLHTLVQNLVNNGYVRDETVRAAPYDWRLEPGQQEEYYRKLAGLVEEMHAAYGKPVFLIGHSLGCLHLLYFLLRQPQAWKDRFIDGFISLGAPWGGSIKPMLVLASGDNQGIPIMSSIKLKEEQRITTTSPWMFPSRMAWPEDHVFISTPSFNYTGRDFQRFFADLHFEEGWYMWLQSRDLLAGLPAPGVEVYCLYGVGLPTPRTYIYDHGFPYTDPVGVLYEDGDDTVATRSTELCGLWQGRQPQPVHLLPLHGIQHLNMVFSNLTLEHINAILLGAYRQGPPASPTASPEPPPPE
Experiment: LCAT Activity Measurement (In Vitro)
Assay type: biochemical
Settings: EC50 of LCAT activation; HDL3 fraction from plasma of a healthy person as enzyme source and acceptor; [14C]cholesterol; 37° C., approximately 16 hours
Description: A fraction composed of HDL3 (1.125<specific gravity<1.210 g/mL) was obtained from the plasma of a healthy person by density gradient centrifugation. The obtained fraction was dialyzed against phosphate-buffered saline (pH 7.4) and used as an enzyme source and an acceptor for LCAT. Each test drug was prepared by dissolution in dimethyl sulfoxide. [14C]Cholesterol containing DTNB (Ellman's reagent, final concentration: 0.5 mM), mercaptoethanol (final concentration: 12.5 mM), and 0.6% bovine serum albumin was added to phosphate-buffered saline (pH 7.4) containing 1 mg/mL HDL3, and the test drug was further added thereto at varying concentrations to adjust the whole amount to 80 μL. This mixture was incubated at 37° C. for approximately 16 hours. Then, a mixed solution of hexane and isopropanol (mixing ratio=3:2) was added thereto to stop the reaction. After stirring, the hexane layer was collected, and this layer was evaporated to dryness. A chloroform solution (concentration: 10 mg/mL) was added thereto, and the mixture was spotted onto a thin-layer silica gel plate and developed using a mixed solution of hexane, diethyl ether, and ethyl acetate (mixing ratio=85:15:2). The radioactivity of a portion corresponding to cholesterol oleate was measured using an imaging analyzer BAS-2500 (manufactured by Fujifilm Corp.). A sample non-supplemented with the test drug was similarly treated and assayed. The EC50 value of LCAT activation was calculated according to the expression given below relative to LCAT activity in the sample non-supplemented with the test drug.
wherein X represents the logarithm of the concentration of the test drug;
Y represents the responsiveness (LCAT activity) of the test drug;
Top represents the maximum value (maximum plateau);
Bottom represents the minimum value (minimum plateau); and
EC50 represents the 50% effective concentration.

Structure (SMILES)	EC50
Cc1cncc(N2CCC(c3n[nH]c4c3C(O)(C(F)(F)F)CC(=O)N4)CC2)n1 (stereo not drawn) [Example 26, 4-Hydroxy-3-[1-(6-methylpyrazin-2-yl)piperidin-4-yl]-4-(trifluoromethyl)-1,4,5,7-tetrahydro-6H-pyrazolo[3,4-b]pyridin-6-one]	260 nM
COC(=O)c1cc(N2CCC(c3n[nH]c4c3C(O)(C(F)(F)F)CC(=O)N4)CC2)ncc1C(F)(F)F (stereo not drawn) [Example 82, Methyl 2-{4-[4-hydroxy-6-oxo-4-(trifluoromethyl)-4,5,6,7-tetrahydro-1H-pyrazolo[3,4-b]pyridin-3-yl]piperidin-1-yl}-5-(trifluoromethyl)pyridine-4-carboxylate]	32 nM
COc1ccc(N2CCC(c3n[nH]c4c3C(O)(C(F)(F)F)CC(=O)N4)CC2)cn1 (stereo not drawn) [Example 32, 4-Hydroxy-3-[1-(6-methoxypyridin-3-yl)piperidin-4-yl]-4-(trifluoromethyl)-1,4,5,7-tetrahydro-6H-pyrazolo[3,4-b]pyridin-6-one]	300 nM
O=C1CC(O)(C(F)(F)F)c2c(C3CCN(c4nc(C(F)(F)F)cs4)CC3)n[nH]c2N1 (stereo not drawn) [Compound 48-a, 4-Hydroxy-4-(trifluoromethyl)-3-{1-[4-(trifluoromethyl)-1,3-thiazol-2-yl]piperidin-4-yl}-1,4,5,7-tetrahydro-6H-pyrazolo[3,4-b]pyridin-6-one]	80 nM
CC(C)c1cc(N2CCC(c3n[nH]c4c3C(O)(C(F)(F)F)CC(=O)N4)CC2)nc(C(C)C)n1 (stereo not drawn) [Example 75, 3-{1-[2,6-di(Propan-2-yl)pyrimidin-4-yl]piperidin-4-yl}-4-hydroxy-4-(trifluoromethyl)-1,4,5,7-tetrahydro-6H-pyrazolo[3,4-b]pyridin-6-one]	220 nM
CN(C)C(=O)c1cc(N2CCC(c3n[nH]c4c3C(O)(C(F)(F)F)CC(=O)N4)CC2)ccc1C(F)(F)F (stereo not drawn) [Example 69, 5-{4-[4-Hydroxy-6-oxo-4-(trifluoromethyl)-4,5,6,7-tetrahydro-1H-pyrazolo[3,4-b]pyridin-3-yl]piperidin-1-yl}-N,N-dimethyl-2-(trifluoromethyl)benzamide]	190 nM
CC(C)(C)c1ncc(N2CCC(c3n[nH]c4c3C(O)(C(F)(F)F)CC(=O)N4)CC2)cn1 (stereo not drawn) [Example 72, 3-[1-(2-tert-Butylpyrimidin-5-yl)piperidin-4-yl]-4-hydroxy-4-(trifluoromethyl)-1,4,5,7-tetrahydro-6H-pyrazolo[3,4-b]pyridin-6-one]	23 nM
N#Cc1cnc(N2CCC(c3n[nH]c4c3C(O)(C(F)(F)F)CC(=O)N4)CC2)s1 (stereo not drawn) [Example 81, 2-{4-[4-Hydroxy-6-oxo-4-(trifluoromethyl)-4,5,6,7-tetrahydro-1H-pyrazolo[3,4-b]pyridin-3-yl]piperidin-1-yl}-1,3-thiazole-5-carbonitrile]	470 nM
O=C1CC(O)(C(F)(F)F)c2c(C3CCN(c4cnc(C(F)(F)F)nc4)CC3)n[nH]c2N1 (stereo not drawn) [Example 65, 4-Hydroxy-4-(trifluoromethyl)-3-{1-[2-(trifluoromethyl)pyrimidin-5-yl]piperidin-4-yl}-1,4,5,7-tetrahydro-6H-pyrazolo[3,4-b]pyridin-6-one]	13 nM
Cc1ccc(N2CCC(c3n[nH]c4c3C(O)(C(F)(F)F)CC(=O)N4)CC2)nc1 (stereo not drawn) [Example 4, 4-Hydroxy-3-[1-(5-methylpyridin-2-yl)piperidin-4-yl]-4-(trifluoromethyl)-1,4,5,7-tetrahydro-6H-pyrazolo[3,4-b]pyridin-6-one]	250 nM
N#Cc1cnc(N2CCC(c3n[nH]c4c3C(O)(C(F)(F)F)CC(=O)N4)CC2)cn1 (stereo not drawn) [Example 78, 5-{4-[4-Hydroxy-6-oxo-4-(trifluoromethyl)-4,5,6,7-tetrahydro-1H-pyrazolo[3,4-b]pyridin-3-yl]piperidin-1-yl}pyrazine-2-carbonitrile]	220 nM
O=C1CC(O)(C(F)(F)F)c2c(C3CCN(c4ccc(Br)cn4)CC3)n[nH]c2N1 (stereo not drawn) [Example 74, 3-[1-(5-Bromopyridin-2-yl)piperidin-4-yl]-4-hydroxy-4-(trifluoromethyl)-1,4,5,7-tetrahydro-6H-pyrazolo[3,4-b]pyridin-6-one]	140 nM
N#Cc1cccc(N2CCC(c3n[nH]c4c3C(O)(C(F)(F)F)CC(=O)N4)CC2)n1 (stereo not drawn) [Example 22, 6-{4-[4-Hydroxy-6-oxo-4-(trifluoromethyl)-4,5,6,7-tetrahydro-1H-pyrazolo[3,4-b]pyridin-3-yl]piperidin-1-yl}pyridine-2-carbonitrile]	180 nM
O=C1CC(O)(C(F)(F)F)c2c(C3CCN(c4cncc(C(F)(F)F)c4)CC3)n[nH]c2N1 (stereo not drawn) [Example 53, 4-Hydroxy-4-(trifluoromethyl)-3-{1-[5-(trifluoromethyl)pyridin-3-yl]piperidin-4-yl}-1,4,5,7-tetrahydro-6H-pyrazolo[3,4-b]pyridin-6-one]	50 nM
O=C1CC(O)(C(F)(F)F)c2c(C3CCN(c4nc(-c5ccccc5)cs4)CC3)n[nH]c2N1 (stereo not drawn) [Example 90, 4-Hydroxy-3-[1-(4-phenyl-1,3-thiazol-2-yl)piperidin-4-yl]-4-(trifluoromethyl)-1,4,5,7-tetrahydro-6H-pyrazolo[3,4-b]pyridin-6-one]	310 nM
N#Cc1cc(N2CCC(c3n[nH]c4c3C(O)(C(F)(F)F)CC(=O)N4)CC2)ccc1OC(F)(F)F (stereo not drawn) [Example 62, 5-{4-[4-Hydroxy-6-oxo-4-(trifluoromethyl)-4,5,6,7-tetrahydro-1H-pyrazolo[3,4-b]pyridin-3-yl]piperidin-1-yl}-2-(trifluoromethoxy)benzonitrile]	7 nM
CN(C)c1ncc(N2CCC(c3n[nH]c4c3C(O)(C(F)(F)F)CC(=O)N4)CC2)cn1 (stereo not drawn) [Example 67, 3-{1-[2-(Dimethylamino)pyrimidin-5-yl]piperidin-4-yl}-4-hydroxy-4-(trifluoromethyl)-1,4,5,7-tetrahydro-6H-pyrazolo[3,4-b]pyridin-6-one]	330 nM
N#Cc1cccc(N2CCC(c3n[nH]c4c3C(O)(C(F)(F)F)CC(=O)N4)CC2)c1 (stereo not drawn) [Example 23, 3-{4-[4-Hydroxy-6-oxo-4-(trifluoromethyl)-4,5,6,7-tetrahydro-1H-pyrazolo[3,4-b]pyridin-3-yl]piperidin-1-yl}benzonitrile]	120 nM
O=C1CC(O)(C(F)(F)F)c2c(C3CCN(c4ccc(F)cc4)CC3)n[nH]c2N1 (stereo not drawn) [Example 70, 3-[1-(4-Fluorophenyl)piperidin-4-yl]-4-hydroxy-4-(trifluoromethyl)-1,4,5,7-tetrahydro-6H-pyrazolo[3,4-b]pyridin-6-one]	300 nM
O=C1CC(O)(C(F)(F)F)c2c(C3CCN(c4ccc(Cl)nn4)CC3)n[nH]c2N1 (stereo not drawn) [Example 34, 3-[1-(6-Chloropyridazin-3-yl)piperidin-4-yl]-4-hydroxy-4-(trifluoromethyl)-1,4,5,7-tetrahydro-6H-pyrazolo[3,4-b]pyridin-6-one]	150 nM
N#Cc1cccnc1N1CCC(c2n[nH]c3c2C(O)(C(F)(F)F)CC(=O)N3)CC1 (stereo not drawn) [Example 100, 2-{4-[4-Hydroxy-6-oxo-4-(trifluoromethyl)-4,5,6,7-tetrahydro-1H-pyrazolo[3,4-b]pyridin-3-yl]piperidin-1-yl}pyridine-3-carbonitrile]	1550 nM
Cc1cccc(N2CCC(c3n[nH]c4c3C(O)(C(F)(F)F)CC(=O)N4)CC2)n1 (stereo not drawn) [Example 3, 4-Hydroxy-3-[1-(6-methylpyridin-2-yl)piperidin-4-yl]-4-(trifluoromethyl)-1,4,5,7-tetrahydro-6H-pyrazolo[3,4-b]pyridin-6-one]	630 nM
N#Cc1ncc(N2CCC(c3n[nH]c4c3C(O)(C(F)(F)F)CC(=O)N4)CC2)cc1F (stereo not drawn) [Example 38, 3-Fluoro-5-{4-[4-hydroxy-6-oxo-4-(trifluoromethyl)-4,5,6,7-tetrahydro-1H-pyrazolo[3,4-b]pyridin-3-yl]piperidin-1-yl}pyridine-2-carbonitrile]	43 nM
N#Cc1ccc(N2CCC(c3n[nH]c4c3C(O)(C(F)(F)F)CC(=O)N4)CC2)nc1Cl (stereo not drawn) [Example 21, 2-Chloro-6-{4-[4-hydroxy-6-oxo-4-(trifluoromethyl)-4,5,6,7-tetrahydro-1H-pyrazolo[3,4-b]pyridin-3-yl]piperidin-1-yl}pyridine-3-carbonitrile]	270 nM
